For assay [1], the target named is T1, hMC-3R (Homo sapiens, UniProt P41968).
T1 construct: expressed in transfected cells; host or cells: Chinese hamster ovary (CHO) cells
Kind of assay: Competitive binding assay, [125I]-NDP-α-MSH, CHO cell membranes. To be noted: 200 pM [125I]-NDP-α-MSH, read-out: Binding Assay IC50 hMC-3R. As for the experimental part: (§1) The peptides of the present invention were evaluated for agonist activity in receptor binding assay. Crude membrane preparations were obtained from Chinese hamster ovary cells expressing human MC3, MC4, and MC5 receptors. Cells were rinsed with phosphate-buffered saline (PBS) lacking CaCl2 or MgCl2 (Life Technologies, Gaithersburg, Md., USA), and then detached with enzyme-free dissociation media (Specialty Media, Lavellette, N.J., USA). Cells were pelleted at 2800×g for 10 minutes and resuspended in membrane buffer (20 mM Tris, pH 7.2, 5 mM ethylenediaminetetraacetic acid) with 5 μg/ml leupeptin, 5 μg/ml aprotinin, 40 μg/ml bacitracin, and 25 μg/ml pefabloc (Boehringer Mannheim). The cells were […] with 10 strokes by using a motor-driven Teflon-coated pestle in a glass homogenizer at low speed. The resulting cell suspension was centrifuged at 4100×g, 4° C., for 20 minutes. The pellet was resuspended in fresh membrane buffer with protease inhibitors, aliquoted, snap-frozen in liquid nitrogen, and stored at −80° C. The resulting crude membranes were titrated to determine the optimal level necessary for performing binding studies.
(§2) Binding reactions (total volume=250 μl) contained MBB (50 mM Tris, pH 7.2, 2 mM CaCl2, 1 mM MgCl2), 0.1% bovine serum albumin, crude membranes prepared from cells expressing human MC3, MC4, or MC5 receptor, 200 pM of [125I]-NDP-α-MSH (Amersham, Arlington Heighs, Ill., USA), and increasing concentrations of unlabeled test compounds dissolved in dimethylsulfoxide (final concentration=2%). Reactions were incubated for 1 hour without shaking and then filtered through 96-well filter plates (Packard), presoaked in 1% polyethyleneimine. Filters were washed 3 times with TNE buffer (50 mM Tris, pH 7.4, 5 mM ethylene-diaminetetraacetic acid, 150 mM NaCl), dried and counted by using Microscint-20 in a Topcount scintillation counter (Packard). Nonspecific binding was determined in the presence of 2 μm of unlabeled NDP-α-MSH (Peninsula Laboratories). Active peptides were evaluated in three independent experiments.

The target in assay [2] is T2, hMC-4R (Homo sapiens, UniProt P32245).
T2 construct: expressed in transfected cells; host or cells: Chinese hamster ovary (CHO) cells
Described as above. To be noted: 200 pM [125I]-NDP-α-MSH, read-out: Binding Assay IC50 hMC-4R. As for the experimental part:
as §1, §2

The target in assay [3] is T3, hMC-5R (Homo sapiens, UniProt P33032).
T3 construct: expressed in transfected cells; host or cells: Chinese hamster ovary (CHO) cells
The description is as above. The settings on record: 200 pM [125I]-NDP-α-MSH, read-out: Binding Assay IC50 hMC-5R. As for the experimental part:
as §1, §2

In assay [4] the target is T1, hMC-3R. Nature of the assay: cAMP assay in CHO cells expressing a human melanocortin receptor. The format is cell-based. To be noted: 45 minutes at room temperature. As for the experimental part: (§3) Chinese hamster ovary cells expressing a human melanocortin receptor were rinsed with calcium- and magnesium-free PBS (Life Technologies), and detached from the tissue culture flasks by 5-minutes incubation with enzyme-free dissociation buffer (S-014-B, Specialty Media). Cells were collected by centrifugation and resuspended in Earle's balanced salt solution (Life Technologies) with addition of 10 mM 4-(2-hydroxyethyl)-1-piperazineethanesulfonic acid (Hepes) buffer, pH 7.5, 5 mM MgCl2, 1 mM glutamine, and 1 mg/ml bovine serum albumin to concentration of 1-5×10^6 cells/ml. Subsequently, cells were counted and the cell suspension was treated with the phosphodiesterase inhibitor 3-isobutyl-1-methylxanthine (to concentration of 0.6 mM).
(§4) A test compound was dissolved in dimethyl sulfoxide (DMSO, 10^−3 to 10^−8 M), diluted with buffer, and 0.1 volume of the solution was added to 0.9 volumes of the cell suspension (1 to 5×10^5 cells); final concentration of DMSO was 1%. After 45 minutes at room temperature, cells were lysed by incubation at 100° C. for 5 minutes to release accumulated cAMP. Accumulation of cAMP was measured in an aliquot of the cell lysate with the Amersham (Arlington Heights, Ill.) cAMP detection assay kit (RPA556). The amount of cAMP produced in response to a tested compound was compared to the amount of cAMP produced in response to α-MSH, defined as a 100% agonist. All active peptides were characterized in three independent experiments.
In general terms: Changes in cAMP serve as a functional read-out for many G protein-coupled receptors.

Assay [5] has as its target T2, hMC-4R. The description is as above. It counts as cell-based. The settings on record: 45 minutes at room temperature. As for the experimental part:
as §3, §4

The target in assay [6] is T3, hMC-5R. Described as above. The format is cell-based. To be noted: for EC50: CHO cells, 45 minutes at room temperature; for CAMP Assay hMC-5R, % activation at a single concentration: @ 5 (concentration unit not given), relative to α-MSH defined as a 100% agonist. As for the experimental part:
as §3, §4

The conditions of assay [7]: rats, cited from earlier work; for Food intake: intraventricular administration / injection.

“Also recorded” adds a separate entry of the source. Starred links: 1 amine or outer side, 2 acyl side, 3 side chain; linkers in the order of their positions; H or OH if unused. Positions of bridges follow the written chain, without caps; N, C: chain ends. Non-standard residues stand in square brackets, D forms with d. Residues, ends and D or L forms follow the SMILES beside them. ξ: configuration not given here. dPhe(4-Cl) = N[C@H](Cc1ccc(Cl)cc1)C(=O)O; 2Nal = N[C@@H](Cc1ccc2ccccc2c1)C(=O)O; Suc = O=C(CCC(=O)[*:2])[*:1]; ξE = NC(CCC(=O)O)C(=O)O; ξDab = NCCC(N)C(=O)O; ξK = NCCCCC(N)C(=O)O; ξDap = NCC(N)C(=O)O; Ava = NCCCCC(=O)O; GABA = NCCCC(=O)O; βAla = NCCC(=O)O

T1 sequence (P41968 whole entry): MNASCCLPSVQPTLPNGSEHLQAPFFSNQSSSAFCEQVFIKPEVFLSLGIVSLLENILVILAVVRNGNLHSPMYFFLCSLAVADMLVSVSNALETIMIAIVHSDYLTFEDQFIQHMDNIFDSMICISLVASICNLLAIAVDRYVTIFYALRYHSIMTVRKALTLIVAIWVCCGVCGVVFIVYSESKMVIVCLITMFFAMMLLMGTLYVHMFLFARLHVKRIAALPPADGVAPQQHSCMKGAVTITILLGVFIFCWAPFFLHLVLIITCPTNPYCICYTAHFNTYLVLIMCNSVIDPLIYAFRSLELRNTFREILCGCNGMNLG
T3 sequence (P33032 whole entry): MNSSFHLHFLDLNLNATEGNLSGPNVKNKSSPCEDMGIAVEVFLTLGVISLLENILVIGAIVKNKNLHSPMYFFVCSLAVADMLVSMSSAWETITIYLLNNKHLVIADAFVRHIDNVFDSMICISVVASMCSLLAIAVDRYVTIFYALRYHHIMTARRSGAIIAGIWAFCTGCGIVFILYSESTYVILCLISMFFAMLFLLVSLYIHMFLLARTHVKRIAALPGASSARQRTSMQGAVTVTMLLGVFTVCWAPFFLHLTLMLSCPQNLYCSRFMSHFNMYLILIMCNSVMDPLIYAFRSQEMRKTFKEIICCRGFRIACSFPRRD
T2 sequence (P32245 whole entry): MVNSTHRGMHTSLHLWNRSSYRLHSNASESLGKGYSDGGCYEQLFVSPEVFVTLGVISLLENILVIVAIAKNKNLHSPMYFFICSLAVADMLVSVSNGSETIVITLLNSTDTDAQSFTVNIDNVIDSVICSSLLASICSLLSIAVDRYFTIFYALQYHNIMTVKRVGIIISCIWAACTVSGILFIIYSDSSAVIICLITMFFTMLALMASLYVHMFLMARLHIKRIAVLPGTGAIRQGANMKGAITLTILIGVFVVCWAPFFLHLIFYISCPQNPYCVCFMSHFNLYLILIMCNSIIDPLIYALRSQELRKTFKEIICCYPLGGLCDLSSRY

On to `N=C(N)NCCC[C@@H]1NC(=O)[C@@H](Cc2ccccc2)NC(=O)[C@H](Cc2c[nH]cn2)NC(=O)CCC(=O)NCCCCC(C(N)=O)NC(=O)[C@H](Cc2c[nH]c3ccccc23)NC1=O` (some centres unmarked) [Example 1] (H[dF]RW[ξK]-NH2; linker N-5 via Suc), for which the values for the half-inhibitory concentration (IC50) at hMC-3R [1], on hMC-4R [2] and on hMC-5R [3] were 418 nM, 25 nM and 3100 nM, respectively. The results for the EC50 at hMC-3R [4], at hMC-4R [5] and on hMC-5R [6] were 110 nM, 3.3 nM and 1180 nM, respectively.
Consider `N=C(N)NCCC[C@@H]1NC(=O)[C@@H](Cc2ccccc2)NC(=O)[C@H](Cc2c[nH]cn2)NC(=O)CCC(=O)NCCC(C(N)=O)NC(=O)[C@H](Cc2c[nH]c3ccccc23)NC1=O` (some centres unmarked) [Example 2] (H[dF]RW[ξDab]-NH2; linker N-5 via Suc), for which the figures for the IC50 on hMC-3R [1], at hMC-4R [2] and at hMC-5R [3] were 1800 nM, 35 nM and 7200 nM, respectively. Moreover, the concentration giving a half-maximal response (EC50) on hMC-3R [4] was 240 nM; at hMC-4R [5] it was 2.9 nM; at hMC-5R [6], 2200 nM.
With `N=C(N)NCCC[C@@H]1NC(=O)[C@@H](Cc2ccccc2)NC(=O)[C@H](Cc2c[nH]cn2)NC(=O)CCC(=O)NCC(C(N)=O)NC(=O)[C@H](Cc2c[nH]c3ccccc23)NC1=O` (some centres unmarked) [Example 3] (H[dF]RW[ξDap]-NH2; linker N-5 via Suc), the IC50 on hMC-3R [1] came to 1600 nM; at hMC-4R [2], 71 nM; at hMC-5R [3], 3600 nM. Further, the EC50 on hMC-3R [4] came to 590 nM; at hMC-4R [5] it was 33 nM. For the same compound, the “CAMP Assay hMC-5R, % activation at a single concentration” value at hMC-5R [6] turned out to be 12% @ 5.
Regarding `N=C(N)NCCC[C@@H]1NC(=O)[C@@H](Cc2ccc(Cl)cc2)NC(=O)[C@H](Cc2c[nH]cn2)NC(=O)CCC(=O)NCCCCC(C(N)=O)NC(=O)[C@H](Cc2c[nH]c3ccccc23)NC1=O` (some centres unmarked) [Example 4] (H[dPhe(4-Cl)]RW[ξK]-NH2; linker N-5 via Suc), the IC50 worked out at 17 nM at hMC-3R [1], 1.7 nM at hMC-4R [2] and 92 nM at hMC-5R [3]. For the same compound, the figures for the half-maximal effective concentration (EC50) at hMC-3R [4], at hMC-4R [5] and on hMC-5R [6] were 40 nM, 0.74 nM and 170 nM, respectively.
For the compound `N=C(N)NCCC[C@@H]1NC(=O)[C@@H](Cc2ccccc2)NC(=O)[C@H](Cc2c[nH]cn2)NC(=O)CCC(=O)NCCCCC(C(N)=O)NC(=O)[C@H](Cc2ccc3ccccc3c2)NC1=O` (some centres unmarked) [Example 5] (H[dF]R[2Nal][ξK]-NH2; linker N-5 via Suc), the 50% inhibitory concentration (IC50) was 440 nM at hMC-3R [1], 13 nM on hMC-4R [2] and > 20000 nM at hMC-5R [3]. The EC50 at hMC-3R [4] was 360 nM; at hMC-4R [5], 3.7 nM; on hMC-5R [6] it was > 5000 nM.
Regarding `N=C(N)NCCC[C@@H]1NC(=O)[C@@H](Cc2ccccc2)NC(=O)[C@H](Cc2c[nH]cn2)NC(=O)CCCCNC(=O)CCC(C(N)=O)NC(=O)[C@H](Cc2c[nH]c3ccccc23)NC1=O` (some centres unmarked) [Example 6] ([Ava]H[dF]RW[ξE]-NH2; lactam N-6), the values for the 50% inhibitory concentration (IC50) at hMC-3R [1], at hMC-4R [2] and on hMC-5R [3] were 580 nM, 12 nM and 9000 nM, respectively. The EC50 came out at 190 nM on hMC-3R [4], 2.7 nM at hMC-4R [5] and 1900 nM at hMC-5R [6].
On to `N=C(N)NCCC[C@@H]1NC(=O)[C@@H](Cc2ccccc2)NC(=O)[C@H](Cc2c[nH]cn2)NC(=O)CCCNC(=O)CCC(C(N)=O)NC(=O)[C@H](Cc2c[nH]c3ccccc23)NC1=O` (some centres unmarked) [Example 7] ([GABA]H[dF]RW[ξE]-NH2; lactam N-6), for which the values for the 50% inhibitory concentration (IC50) on hMC-3R [1], on hMC-4R [2] and on hMC-5R [3] were 1830 nM, 41 nM and > 5000 nM, respectively. Moreover, the EC50 on hMC-3R [4] was 310 nM; at hMC-4R [5], 5.7 nM; at hMC-5R [6] it was > 5000 nM.
`N=C(N)NCCC[C@@H]1NC(=O)[C@@H](Cc2ccccc2)NC(=O)[C@H](Cc2c[nH]cn2)NC(=O)CCNC(=O)CCC(C(N)=O)NC(=O)[C@H](Cc2c[nH]c3ccccc23)NC1=O` (some centres unmarked) [Example 8] ([βAla]H[dF]RW[ξE]-NH2; lactam N-6): the values for the IC50 on hMC-3R [1] and on hMC-5R [3] were 450 nM and 5050 nM, respectively.
Turning to `N=C(N)NCCC[C@@H]1NC(=O)[C@@H](Cc2ccccc2)NC(=O)[C@H](Cc2c[nH]cn2)NC(=O)CNC(=O)CCC(C(N)=O)NC(=O)[C@H](Cc2c[nH]c3ccccc23)NC1=O` (some centres unmarked) [Example 9] (GH[dF]RW[ξE]-NH2; lactam N-6), the IC50 is > 1000 nM on hMC-3R [1], 290 nM on hMC-4R [2] and > 1000 nM on hMC-5R [3]. The concentration for a half-maximal effect (EC50) at hMC-3R [4] turned out to be 2200 nM; at hMC-4R [5] it was 35 nM. In addition, at hMC-5R [6], the “CAMP Assay hMC-5R, % activation at a single concentration” value came out at 15% @ 5.
Consider MTII, for which the Food intake result in assay [7] is given as “reduced food intake”.
Turning to SHU9119, the Food intake result in assay [7] is given as “increased food intake; also recorded: stimulates food intake”. Moreover, the Body weight entry in assay [7] (intraventricular administration) is “increased food intake and body weight”.

What is called IC50 is the concentration needed to halve the response being measured. For orientation: EC50 means the concentration at which the effect is half-maximal. Read a high EC50 as a need for much substance.
